Test results reported in US6335347B1, “Ethyl 4-(8-chloro-5,6-dihydro-11 H-benzo[5,6]cyclohepta[1,2-b]pyridin-11-ylidene)-1-piperidene carboxylate polymorph” (Schering Corporation, priority 1997, dated 2002).

Tested on: monkey model
Assay: Antihistaminic activity in a monkey model

CCOC(=O)N1CCC(=C2c3ccc(Cl)cc3CCc3cccnc32)CC1 [polymorph form 2 loratadine, ethyl 4-(8-chloro-5,6,-dihydro-11H-benzo[5,6]cyclohepta[1,2-b]pyridin-11-ylidene)-1-piperidene carboxylate]
Antihistaminic activity: demonstrated
